Data published in PubChem BioAssay (NCI).
“And” between values parts separate entries of the source, which are not always exact repeats. Equal values may be shown once.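 Values below derive from 48-hour exposures of cells grown in 96-well plates, with endpoints linearly interpolated between the two concentrations bracketing the appropriate inhibition level. GI50 is the concentration that inhibits growth by half. TGI is the concentration that stops growth completely.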

Key:
Test in all cases: NCI-60 cell line screen, 48 h
A498 renal = tested on: A498 renal
DU-145 prostate = tested on: DU-145 prostate
EKVX NSCLC = tested on: EKVX NSCLC
IGROV1 ovarian = tested on: IGROV1 ovarian
MDA-MB-435 = tested on: MDA-MB-435
NCI-H23 lung = tested on: NCI-H23 lung
PC-3 prostate = tested on: PC-3 prostate
SK-OV-3 ovarian = tested on: SK-OV-3 ovarian
SNB-19 CNS = tested on: SNB-19 CNS
SNB-75 CNS = tested on: SNB-75 CNS

Row | SMILES | GI50 (A498 renal) [µM] | TGI (A498 renal) | GI50 (DU-145 prostate) | TGI (DU-145 prostate) | GI50 (EKVX NSCLC) [µM] | TGI (EKVX NSCLC) [µM] | GI50 (IGROV1 ovarian) [µM] | TGI (IGROV1 ovarian) | GI50 (MDA-MB-435) | TGI (MDA-MB-435) | GI50 (NCI-H23 lung) [µM] | TGI (NCI-H23 lung) | GI50 (PC-3 prostate) [µM] | TGI (PC-3 prostate) | GI50 (SK-OV-3 ovarian) [µM] | TGI (SK-OV-3 ovarian) | GI50 (SNB-19 CNS) [µM] | TGI (SNB-19 CNS) | GI50 (SNB-75 CNS) | TGI (SNB-75 CNS) [µM]
1 | O=C(c1ccc(Nc2nccc(NCCCCNc3ccnc4cc(Cl)ccc34)n2)cc1)N1CCCCC1 | 0.674 | 6.22 µM | 3.53 µM | 14.3 µM | 3.86 | 19.8 | 2.83 | 9.08 µM | 1.7 µM | 3.89 µM | 2.95 | 15.7 µM | 0.955 | 7.89 µM | 5.45 | 18 µM | 3.89 | 21.1 µM | 1.58 µM | 3.35
2 | NC(Cc1c[nH]c2cccc(F)c12)C(=O)O (stereo not drawn) | 1150 | 3670 µM | 32 µM and 297 µM | > 4500 µM | 778 | > 4500 | 43.8 | – | 50.9 µM and 189 µM | > 4500 µM | – | 3180 µM | – | > 4500 µM | 518 | > 4500 µM | 1120 | > 4500 µM | 77.2 µM and 726 µM | 2790
3 | CCC(C(=O)[C@@H](C)[C@@H](O)[C@H](C)[C@@H]1O[C@@H]([C@@H](CC)C(=O)ONC(=O)c2ccccc2)CC[C@@H]1C)[C@H]1O[C@]2(C=CC(=O)[C@]3(CC[C@@](C)([C@H]4CC[C@](O)(CC)[C@H](C)O4)O3)O2)[C@H](C)C[C@@H]1C (stereo partly drawn) | 0.0851 | 0.731 µM | 0.511 µM | 1.98 µM | 0.548 | 2.65 | 0.198 | 0.631 µM | 1.11 µM | 2.88 µM | 0.175 | 2.08 µM | 0.0775 | 1.99 µM | 2.79 | 10.1 µM | 0.588 | 3.43 µM | 0.238 µM | 2.04
4 | Cc1nn(-c2ccccc2)c2nc(C)n(-c3ccc(Br)cc3)c(=O)c12 | 0.219 | 0.816 µM | 1.44 µM | > 100 µM | 0.822 | > 100 | 0.584 | > 100 µM | 0.226 µM | 0.684 µM | 0.823 | > 100 µM | 0.475 | > 100 µM | 1.28 | > 100 µM | 0.547 | > 100 µM | 0.181 µM | 0.725
5 | Cc1ccc(C2C3Cc4ccccc4C3=NN2c2ccc(S(=O)(=O)NC(=O)Nc3ccccc3)cc2)cc1 (stereo not drawn) | 15.6 | 30.7 µM | 14.2 µM | 27.2 µM | 13.7 | 33 | 1.15 | 19.7 µM | 18.7 µM | 46.2 µM | 14.9 | 31.9 µM | 13.5 | 26.3 µM | 16.1 | 31.9 µM | 25.4 | > 100 µM | 17.9 µM | 47.8
6 | CC1(C)CC[C@]2(CO)CC[C@]3(C)C(=CC[C@@H]4[C@@]5(C)CCNCC(C)(C)[C@@H]5CC[C@]43C)[C@@H]2C1 | 12.5 | 25.1 µM | 6.93 µM | 21 µM | 9.55 | 23.2 | 6.83 | 21 µM | 3.01 µM | 8.9 µM | 12.5 | 26.9 µM | 4.32 | 18.3 µM | 13.5 | 26.8 µM | 12.8 | 26.8 µM | 10.1 µM | 23
7 | C=CCN1C(=O)[C@]2(SC1=S)[C@H](c1cccc(Cl)c1)CN(C)[C@]21C(=O)NC2C=CC(Cl)=C[C@H]21 (stereo partly drawn) | 2.7 | 7.48 µM | 4.16 µM | 14.6 µM | 4.54 | 24.6 | 2.98 | 16.5 µM | 5.9 µM | 21.5 µM | 6.12 | 22 µM | 2.19 | 13 µM | 8.36 | 29.2 µM | 4.83 | 16.8 µM | 2.37 µM | 18.2
8 | CCC(C)C(=O)OC1CCC=C2C=CC(C)C(CCC3CC(O)CC(=O)O3)C21 (stereo not drawn) | – | > 66 µM | – | > 100 µM | – | > 100 | – | 44.1 µM | – | > 100 µM | – | > 100 µM | – | > 47.9 µM | – | > 100 µM | – | > 100 µM | – | > 75.9
9 | O=C(CCl)Nc1ccc(Cc2ccc(NC(=O)CCl)cc2)cc1 | 18.7 | 94.1 µM | 2.85 µM | 11 µM | 2.23 | 5.78 | 1.43 | 4.06 µM | 1.76 µM | 4.31 µM | 1.77 | 4.52 µM | 2.13 | 6.42 µM | 18 | > 100 µM | 1.8 | 5.14 µM | – | > 29.3
10 | CC(=O)/C=C/c1ccc(N(CCO)Cc2ccc(C(C)(C)C)cc2)cc1 | 113 | 236 µM | 73.2 µM | 206 µM | 31 | 162 | 112 | 260 µM | 64 µM | 196 µM | 63.7 | 235 µM | 32.2 | 128 µM | 121 | 248 µM | 116 | 241 µM | 54.7 µM | 200
11 | c1ccc2c(c1)[nH]c1c3ccccc3sc21 | – | > 100 µM | – | > 100 µM | – | > 100 | – | > 100 µM | – | > 100 µM | – | > 100 µM | – | > 100 µM | – | > 100 µM | – | > 100 µM | – | > 100
12 | COc1ccc2nc3ccccc3c(NCc3ccccc3)c2c1 | 1.7 | 3.15 µM | 3.18 µM | 10.3 µM | 3.03 | 11.4 | 2.34 | 6.66 µM | 1.91 µM | 3.93 µM | 1.95 | 5.52 µM | 2.35 | 7.39 µM | 2.45 | 9.08 µM | 3.41 | 13.7 µM | 2.48 µM | 10
13 | C1=C\CCCCN2CC[C@H]3[C@H](CCCC/C=C\CCCN4C[C@@H](CCCCC/1)C[C@@H]3C4)C2 | 6.31 | 21.4 µM | 11.7 µM | 23.9 µM | 11.8 | 25 | 9.27 | 23.1 µM | 1.73 µM | 3.26 µM | 14.3 | 30.2 µM | 14 | 36.6 µM | 13.3 | 26.2 µM | 16.4 | 30.5 µM | 3.99 µM | 18.9
14 | Cc1cn(C2CC(O)C(COC(N)=O)O2)c(=O)[nH]c1=O (stereo not drawn) | – | > 100 µM | – | > 100 µM | – | > 100 | – | > 100 µM | – | > 100 µM | – | > 100 µM | – | > 100 µM | – | > 100 µM | – | > 100 µM | – | > 100
15 | Nc1ncnc2c1ncn2CCCCC(=O)O | – | > 100 µM | – | > 100 µM | – | > 100 | – | > 100 µM | – | > 100 µM | – | > 100 µM | – | > 100 µM | – | > 100 µM | – | > 100 µM | – | > 100
16 | c1ccc(/C(=N\Nc2nc3ccccc3s2)c2ccccn2)cc1 | – | 70.1 µM | – | 30 µM | – | 15.4 | – | > 48.2 µM | – | > 100 µM | – | > 100 µM | – | > 53.2 µM | – | 98.6 µM | – | > 100 µM | – | > 100
17 | CCSCCCC(=O)O | – | > 100 µM | – | > 100 µM | – | > 100 | – | > 100 µM | – | > 100 µM | – | > 100 µM | – | > 100 µM | – | > 100 µM | – | > 100 µM | – | > 100
18 | COc1cc(/C=C/c2ccnc3ccccc23)cc(OC)c1OC | 1.6 | 8.91 µM and 5.87 µM | 3.06 µM | 30.3 µM and 20.7 µM | 6.27 | > 100 | 4.94 | 35 µM and > 100 µM | 0.355 µM | 1.87 µM and 1.85 µM | – | 6.92 µM and 9.64 µM | 3.81 | 94.1 µM and > 100 µM | 5.68 | 46.4 µM and 40.3 µM | 6.71 | 42.1 µM and > 100 µM | 1.7 µM | 5.4
19 | C/C=C(\C)C(=O)O[C@@H]1C=CC(=O)O[C@H]1CNC(=O)[C@H](C)O | 21.2 | 53 µM | 22.6 µM | 69.1 µM | 20.9 | 49.5 | 26.6 | > 78.1 µM | 22.6 µM | 82.1 µM | 25.6 | > 75.4 µM | 27.3 | > 92.2 µM | 39.4 | 98.9 µM | 27 | > 74.8 µM | 24.4 µM | > 74.3
20 | Oc1cc(O)c2c(c1)OC(c1ccc(O)c(O)c1)C(O)C2c1c(O)cc(O)c2c1OC(c1ccc(O)c(O)c1)C(O)C2 (stereo not drawn) | – | > 100 µM | – | > 100 µM | – | > 100 | – | > 100 µM | – | > 100 µM | – | > 100 µM | – | > 100 µM | – | > 100 µM | – | > 100 µM | – | > 100
21 | CCN(CC)CCCNc1cc(OC)c(OC)c2cccnc12 | 18.6 | 42 µM | 15.9 µM | 33.4 µM | 16.4 | 54.8 | – | – | 3.05 µM | 14.4 µM | 1.85 | 26.1 µM | 16.1 | 47.2 µM | 9.37 | 44.9 µM | 13.1 | 45 µM | 3.05 µM | 14.8
